Results: PubChem BioAssay (NCI)
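Here, GI50 denotes the concentration required for 50% inhibition of growth. TGI: total growth inhibition.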

How the values were obtained:
Test in all cases: NCI anticancer screen, dose series, 384-well format
BT-549 breast = system: BT-549 breast
MDA-MB-231 breast = system: MDA-MB-231 breast
SNB-19 CNS = system: SNB-19 CNS
ACHN renal = system: ACHN renal
HL-60(TB) leukemia = system: HL-60(TB) leukemia
HOP-92 NSCLC = system: HOP-92 NSCLC
HCT-116 colon = system: HCT-116 colon
HS 578T breast = system: HS 578T breast
MOLT-4 leukemia = system: MOLT-4 leukemia
RPMI-8226 leukemia = system: RPMI-8226 leukemia
LOX IMVI melanoma = system: LOX IMVI melanoma
PC-3 prostate = system: PC-3 prostate
SK-MEL-28 melanoma = system: SK-MEL-28 melanoma
SK-OV-3 ovarian = system: SK-OV-3 ovarian
SW-620 colon = system: SW-620 colon
SF-268 CNS = system: SF-268 CNS
KM12 colon = system: KM12 colon
MALME-3M melanoma = system: MALME-3M melanoma
HT29 colon = system: HT29 colon
TK-10 renal = system: TK-10 renal
DU-145 prostate = system: DU-145 prostate
SN12C renal = system: SN12C renal
MCF7 breast = system: MCF7 breast
SK-MEL-5 melanoma = system: SK-MEL-5 melanoma
OVCAR-5 ovarian = system: OVCAR-5 ovarian
A549 NSCLC = system: A549 NSCLC
NCI-H23 lung = system: NCI-H23 lung
EKVX NSCLC = system: EKVX NSCLC
IGROV1 ovarian = system: IGROV1 ovarian
A498 renal = system: A498 renal
COLO 205 colon = system: COLO 205 colon
SF-539 CNS = system: SF-539 CNS
NCI-H522 lung = system: NCI-H522 lung
OVCAR-3 ovarian = system: OVCAR-3 ovarian
UACC-257 melanoma = system: UACC-257 melanoma
K-562 leukemia = system: K-562 leukemia
MDA-MB-468 breast = system: MDA-MB-468 breast
OVCAR-8 ovarian = system: OVCAR-8 ovarian
NCI-H322M lung = system: NCI-H322M lung
HCT-15 colon = system: HCT-15 colon
M14 melanoma = system: M14 melanoma
UACC-62 melanoma = system: UACC-62 melanoma
HOP-62 NSCLC = system: HOP-62 NSCLC
OVCAR-4 ovarian = system: OVCAR-4 ovarian
NCI/ADR-RES ovarian = system: NCI/ADR-RES ovarian
786-0 renal = system: 786-0 renal
NCI-H226 lung = system: NCI-H226 lung
CCRF-CEM leukemia = system: CCRF-CEM leukemia
CAKI-1 renal = system: CAKI-1 renal
SF-295 CNS = system: SF-295 CNS
SNB-75 CNS = system: SNB-75 CNS
U251 glioblastoma = system: U251 glioblastoma
T-47D breast = system: T-47D breast
MDA-MB-435 melanoma = system: MDA-MB-435 melanoma
HCC-2998 colon = system: HCC-2998 colon
NCI-H460 NSCLC = system: NCI-H460 NSCLC
RXF 393 renal = system: RXF 393 renal
UO-31 renal = system: UO-31 renal

CCCCCCCC/C=C/CCCCCCCC(=O)OC[C@H]1O[C@@H](n2ccc(N)nc2=O)C(F)(F)[C@@H]1O
GI50 (BT-549 breast): < 10 nM
TGI (BT-549 breast): < 10 nM
GI50 (MDA-MB-231 breast): 234 nM
TGI (MDA-MB-231 breast): 13500 nM
GI50 (SNB-19 CNS): < 10 nM
TGI (SNB-19 CNS): 518 nM
GI50 (ACHN renal): < 10 nM
TGI (ACHN renal): < 10 nM
GI50 (HL-60(TB) leukemia): < 10 nM
TGI (HL-60(TB) leukemia): < 10 nM
GI50 (HOP-92 NSCLC): 10.5 nM
TGI (HOP-92 NSCLC): 22400 nM
GI50 (HCT-116 colon): < 10 nM
TGI (HCT-116 colon): 10200 nM
GI50 (HS 578T breast): < 10 nM
TGI (HS 578T breast): 16500 nM
GI50 (MOLT-4 leukemia): < 10 nM
TGI (MOLT-4 leukemia): < 10 nM
GI50 (RPMI-8226 leukemia): < 10 nM
TGI (RPMI-8226 leukemia): < 10 nM
GI50 (LOX IMVI melanoma): < 10 nM
TGI (LOX IMVI melanoma): 18.8 nM
GI50 (PC-3 prostate): 2050 nM
TGI (PC-3 prostate): 35600 nM
GI50 (SK-MEL-28 melanoma): < 10 nM
TGI (SK-MEL-28 melanoma): 51500 nM
GI50 (SK-OV-3 ovarian): < 10 nM
TGI (SK-OV-3 ovarian): 2420 nM
GI50 (SW-620 colon): < 10 nM
TGI (SW-620 colon): 46000 nM
GI50 (SF-268 CNS): < 10 nM
TGI (SF-268 CNS): < 10 nM
GI50 (KM12 colon): < 10 nM
TGI (KM12 colon): 15300 nM
GI50 (MALME-3M melanoma): < 10 nM
TGI (MALME-3M melanoma): 15100 nM
GI50 (HT29 colon): < 10 nM
TGI (HT29 colon): 8700 nM
GI50 (TK-10 renal): > 100000 nM
TGI (TK-10 renal): > 100000 nM
GI50 (DU-145 prostate): < 10 nM
TGI (DU-145 prostate): 2390 nM
GI50 (SN12C renal): < 10 nM
TGI (SN12C renal): 39.9 nM
GI50 (MCF7 breast): < 10 nM
TGI (MCF7 breast): 14100 nM
GI50 (SK-MEL-5 melanoma): < 10 nM
TGI (SK-MEL-5 melanoma): 24.7 nM
GI50 (OVCAR-5 ovarian): < 10 nM
TGI (OVCAR-5 ovarian): > 100000 nM
GI50 (A549 NSCLC): < 10 nM
TGI (A549 NSCLC): 11900 nM
GI50 (NCI-H23 lung): < 10 nM
TGI (NCI-H23 lung): < 10 nM
GI50 (EKVX NSCLC): 57.6 nM
TGI (EKVX NSCLC): 15400 nM
GI50 (IGROV1 ovarian): < 10 nM
TGI (IGROV1 ovarian): 81400 nM
GI50 (A498 renal): < 10 nM
TGI (A498 renal): 14900 nM
GI50 (COLO 205 colon): < 10 nM
TGI (COLO 205 colon): 49.6 nM
GI50 (SF-539 CNS): < 10 nM
TGI (SF-539 CNS): < 10 nM
GI50 (NCI-H522 lung): < 10 nM
TGI (NCI-H522 lung): 2220 nM
GI50 (OVCAR-3 ovarian): < 10 nM
TGI (OVCAR-3 ovarian): 16700 nM
GI50 (UACC-257 melanoma): < 10 nM
TGI (UACC-257 melanoma): 92 nM
GI50 (K-562 leukemia): < 10 nM
TGI (K-562 leukemia): 15000 nM
GI50 (MDA-MB-468 breast): < 10 nM
TGI (MDA-MB-468 breast): < 10 nM
GI50 (OVCAR-8 ovarian): < 10 nM
TGI (OVCAR-8 ovarian): < 10 nM
GI50 (NCI-H322M lung): 1310 nM
TGI (NCI-H322M lung): > 100000 nM
GI50 (HCT-15 colon): < 10 nM
TGI (HCT-15 colon): 59700 nM
GI50 (M14 melanoma): < 10 nM
TGI (M14 melanoma): < 10 nM
GI50 (UACC-62 melanoma): < 10 nM
TGI (UACC-62 melanoma): < 10 nM
GI50 (HOP-62 NSCLC): < 10 nM
TGI (HOP-62 NSCLC): < 10 nM
GI50 (OVCAR-4 ovarian): 38800 nM
TGI (OVCAR-4 ovarian): > 100000 nM
GI50 (NCI/ADR-RES ovarian): < 10 nM
TGI (NCI/ADR-RES ovarian): < 10 nM
GI50 ([…]-0 renal): < 10 nM
TGI (786-0 renal): < 10 nM
GI50 (NCI-H226 lung): 24.8 nM
TGI (NCI-H226 lung): 83.2 nM
GI50 (CCRF-CEM leukemia): < 10 nM
TGI (CCRF-CEM leukemia): < 10 nM
GI50 (CAKI-1 renal): < 10 nM
TGI (CAKI-1 renal): 2990 nM
GI50 (SF-295 CNS): < 10 nM
TGI (SF-295 CNS): 18.5 nM
GI50 (SNB-75 CNS): < 10 nM
TGI (SNB-75 CNS): 49.2 nM
GI50 (U251 glioblastoma): < 10 nM
TGI (U251 glioblastoma): < 10 nM
GI50 (T-47D breast): < 10 nM
TGI (T-47D breast): 1560 nM
GI50 (MDA-MB-435 melanoma): 138 nM
TGI (MDA-MB-435 melanoma): 15600 nM
GI50 (HCC-2998 colon): < 10 nM
TGI (HCC-2998 colon): 11.1 nM
GI50 (NCI-H460 NSCLC): < 10 nM
TGI (NCI-H460 NSCLC): < 10 nM
GI50 (RXF 393 renal): < 10 nM
TGI (RXF 393 renal): 90.2 nM
GI50 (UO-31 renal): < 10 nM
TGI (UO-31 renal): < 10 nM
